Laboratory results as given in ChEMBL document CHEMBL1201862, “PubChem BioAssay data set” (2004).
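A five-concentration, 48-hour dose response in 96-well plates underlies each endpoint, interpolated linearly between surrounding concentrations. At the GI50, growth is halved.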 Calls of active or inactive are those of the source. Cut-off read from the data, not from the text of the source: active = GI50 up to about 1.1 µM and inactive = higher.

Legend:
Assay in all cases: NCI anticancer screen, dose series, 48 h
HCT-116 = tested on: HCT-116
SF-295 = tested on: SF-295
U-251 = tested on: U-251
TK-10 = tested on: TK-10
OVCAR-8 = tested on: OVCAR-8
NCI-H460 = tested on: NCI-H460
MCF7 = tested on: MCF7
HCT-15 = tested on: HCT-15
UACC-62 = tested on: UACC-62
SNB-19 = tested on: SNB-19
NCI-H226 = tested on: NCI-H226
SN12C = tested on: SN12C
SF-268 = tested on: SF-268
SW-620 = tested on: SW-620
HCC 2998 = tested on: HCC 2998
SR = tested on: SR
NCI-H23 = tested on: NCI-H23
OVCAR-5 = tested on: OVCAR-5
CCRF-CEM = tested on: CCRF-CEM
MDA-N = tested on: MDA-N
HOP-92 = tested on: HOP-92
A498 = tested on: A498
KM12 = tested on: KM12
MDA-MB-435 = tested on: MDA-MB-435
MDA-MB-231 = tested on: MDA-MB-231
SK-MEL-5 = tested on: SK-MEL-5
ACHN = tested on: ACHN
SK-MEL-2 = tested on: SK-MEL-2
BT-549 = tested on: BT-549
LOX IMVI = tested on: LOX IMVI
OVCAR-4 = tested on: OVCAR-4
COLO 205 = tested on: COLO 205
IGROV-1 = tested on: IGROV-1
HOP-62 = tested on: HOP-62
SNB-75 = tested on: SNB-75
UO-31 = tested on: UO-31
T47D = tested on: T47D
NCI/ADR-RES = tested on: NCI/ADR-RES
CAKI-1 = tested on: CAKI-1
PC-3 = tested on: PC-3
UACC-257 = tested on: UACC-257
NCI-H522 = tested on: NCI-H522
Hs-578T = tested on: Hs-578T
M14 = tested on: M14
SK-OV-3 = tested on: SK-OV-3
DU-145 = tested on: DU-145
OVCAR-3 = tested on: OVCAR-3
786-0 = tested on: 786-0
K562 = tested on: K562
EKVX = tested on: EKVX
Malme-3M = tested on: Malme-3M
HT-29 = tested on: HT-29
MOLT-4 = tested on: MOLT-4
SK-MEL-28 = tested on: SK-MEL-28
RXF 393 = tested on: RXF 393
A549 = tested on: A549
HL-60 = tested on: HL-60

For Oc1ccc(-c2cn3cc(C(F)(F)F)ccc3n2)cc1, the GI50 (HCT-116) was 49.1 µM (inactive), the GI50 (SF-295) was 45.7 µM (inactive) and the GI50 (U-251) was 41.1 µM (inactive). The GI50 (TK-10) was 41.5 µM (inactive), the GI50 (OVCAR-8) was 37.8 µM (inactive) and the GI50 (NCI-H460) was 32.1 µM (inactive). For the same compound, the GI50 (MCF7) was 26.7 µM (inactive), the GI50 (HCT-15) was 35.6 µM and the GI50 (UACC-62) was 31.7 µM (inactive). For the same compound, the GI50 (SNB-19) was > 100 µM (inactive), the GI50 (NCI-H226) was 74.3 µM (inactive) and the GI50 (SN12C) was 72.3 µM (inactive). The GI50 (SF-268) was 89.1 µM (inactive), the GI50 (SW-620) was 75.5 µM (inactive) and the GI50 (HCC 2998) was 22.1 µM (inactive). The GI50 (SR) was 26.2 µM (inactive), the GI50 (NCI-H23) was 38 µM (inactive) and the GI50 (OVCAR-5) was 76.9 µM (inactive). For the same compound, the GI50 (CCRF-CEM) was 15.9 µM (inactive), the GI50 (MDA-N) was 43.7 µM (inactive) and the GI50 (HOP-92) was > 100 µM (inactive). The GI50 (A498) was 70.1 µM (inactive), the GI50 (KM12) was 43.3 µM (inactive) and the GI50 (MDA-MB-435) was 41.2 µM (inactive). For the same compound, the GI50 (MDA-MB-231) was > 100 µM (inactive), the GI50 (SK-MEL-5) was 32.1 µM (inactive) and the GI50 (ACHN) was 12.1 µM (inactive). The GI50 (SK-MEL-2) was 62.2 µM (inactive), the GI50 (BT-549) was 56.4 µM (inactive) and the GI50 (LOX IMVI) was 43.2 µM (inactive). For the same compound, the GI50 (OVCAR-4) was 55.7 µM (inactive), the GI50 (COLO 205) was 45.2 µM (inactive) and the GI50 (IGROV-1) was 63.2 µM (inactive). The GI50 (HOP-62) was > 100 µM (inactive), the GI50 (SNB-75) was 6.84 µM (inactive) and the GI50 (UO-31) was 61.5 µM (inactive). The GI50 (T47D) was 18.3 µM (inactive), the GI50 (NCI/ADR-RES) was 29.9 µM (inactive) and the GI50 (CAKI-1) was 60.1 µM (inactive). For the same compound, the GI50 (PC-3) was 46.9 µM (inactive), the GI50 (UACC-257) was 29.6 µM (inactive) and the GI50 (NCI-H522) was 17.3 µM (inactive). For the same compound, the GI50 (Hs-578T) was > 100 µM (inactive), the GI50 (M14) was 51.3 µM (inactive) and the GI50 (SK-OV-3) was > 100 µM (inactive). The GI50 (DU-145) was 30.6 µM (inactive), the GI50 (OVCAR-3) was 41.3 µM (inactive) and the GI50 (786-0) was 30.7 µM (inactive). For the same compound, the GI50 (K562) was 35.2 µM (inactive), the GI50 (EKVX) was 56.2 µM (inactive) and the GI50 (Malme-3M) was 71.8 µM (inactive). For the same compound, the GI50 (HT-29) was 34.8 µM (inactive), the GI50 (MOLT-4) was 26.5 µM (inactive) and the GI50 (SK-MEL-28) was > 100 µM (inactive). The GI50 (RXF 393) was 31.6 µM (inactive), the GI50 (A549) was 44.8 µM (inactive) and the GI50 (HL-60) was 9.18 µM (inactive).
